One assay has as its system SARS-CoV-2 virions. More on the design: species or system SARS-CoV-2 isolate BetaCoV/France/IDF0372/2020.
The subject of assay [1] is SARS-CoV-2 spike pseudoparticles. It counts as cell-based. Particulars: read-out: IC50 against SARS-CoV-2 spike-mediated transduction.
Another assay concerns SARS-CoV-2. The assay is classed as cell-based, SARS-CoV-2 isolate BetaCoV/France/IDF0372/2020.
Assay [2] is described as follows: Liposome dye leakage assay. The settings on record: read-out: liposome EC50 (dye leakage); 200 nm liposomes filled with 50 mM carboxyfluorescein, 30 min incubation.
The next assay concerns IAV. The assay is classed as cell-based, Influenza strain A/PR/8/34 (H1N1; PR8). The settings on record: read-out: IAV IC50.

By IC50 is commonly meant the concentration that inhibits the measured activity by half. The term EC50 denotes the concentration giving half of the maximal effect. With `O=C(O)COc1c2c(c(OCC(=O)O)c3c1C1CC3c3cc4c(cc31)C1CC4c3ccccc31)C1CC2c2cc3c(cc21)C1CC3c2ccccc21` [CLR05], the “morphology of treated SARS-CoV-2 virions (TEM)” value in the assay on SARS-CoV-2 virions is on record as “largely disrupted”. For the same compound, the figures for the IC50 (in assay [1]; in the assay on SARS-CoV-2 (read-out: SARS-CoV-2 IC50); in the assay with IAV) were 33 µM, 167 µM and 70.3 µM, respectively. Moreover, the “inhibition of virus infection” value in the assay with SARS-CoV-2 was about 70%. In addition, the EC50 in assay [2] is 121 µM.
